Assay results published in patent US9895363B2, “Methods for modulating function of proliferating cell nuclear antigen (PCNA) and treating cancer with PCNA-targeting compounds” (University of Cincinnati, priority 2010, dated 2018).
“Also recorded” adds a separate entry of the source. Read-outs that look alike come from different tables or passages of the source.

Tests used:
[1] = test system: LAPC-4 prostate cancer cells; assay: Growth inhibition by MTT staining, LAPC-4; assay type: cell-based; details: LAPC4, 96 h, Human tumor cells, treated four days
Procedure: (§1) Growth inhibitory effects of PCNA-I1 and PCNA-I2 were assessed in human cancer cell lines, mouse cancer cell lines, immortalized mouse cell lines, and human primary cell lines. Specifically, growth inhibitory effects of PCNA-I1 and PCNA-I2 were assessed using MTT staining in the following cells lines: 1) human cancer cell lines including LNCaP (androgen receptor […]), 22Rv1, DU-145, LAPC-4, and PC-3 (androgen receptor […]) prostate cancer cells; MCF-7 and T47D breast cancer cells; A375 and MDA-MB435 melanoma cells; 2) mouse cancer cell lines including TRAMP-C2RE3 prostate cancer cells, B16 and K1735 melanoma cells, UV2237 fibrosarcoma cells, and CT-26 colon cancer cells; 3) immortalized mouse lung cell lines and mouse endothelial cell lines; and 4) primary human cell lines including umbilical endothelial cells (HUVEC, PromoCell, Heidelberg, Germany), primary bone marrow mesenchymal stem cells (HuMSC, PromoCell), primary human mammary epithelial cells (HuBrEC, Lonza, Walkersville, Md.), primary human prostate epithelial cells (HuPrEC, Lonza), and primary mouse spleen lymphocytes (isolated in this laboratory), and primary mouse bone marrow stromal cells (isolated in this laboratory). […]
(§2) IC50 values were derived from growth inhibition curves. […] Inhibition of cell growth was calculated using the formula: growth inhibition (%)=(1−A570 of treated/A570 of control)×100. […]

[2] = test system: LNCaP prostate cancer cells; assay: Growth inhibition by MTT staining, LNCaP; assay type: cell-based, Human; details: 96 h, Table II, Human tumor cells, treated four days, mean of five to seven experiments, read-out: IC50 Values, LNCaP
Procedure: (§3) Growth inhibitory effects of PCNA-I1 and PCNA-I2 were assessed in human cancer cell lines, mouse cancer cell lines, immortalized mouse cell lines, and human primary cell lines. Specifically, growth inhibitory effects of PCNA-I1 and PCNA-I2 were assessed using MTT staining in the following cells lines: 1) human cancer cell lines including LNCaP (androgen receptor […]), 22Rv1, DU-145, LAPC-4, and PC-3 (androgen receptor […]) prostate cancer cells; MCF-7 and T47D breast cancer cells; A375 and MDA-MB435 melanoma cells; 2) mouse cancer cell lines including TRAMP-C2RE3 prostate cancer cells, B16 and K1735 melanoma cells, UV2237 fibrosarcoma cells, and CT-26 colon cancer cells; 3) immortalized mouse lung cell lines and mouse endothelial cell lines; and 4) primary human cell lines including umbilical endothelial cells (HUVEC, PromoCell, Heidelberg, Germany), primary bone marrow mesenchymal stem cells (HuMSC, PromoCell), primary human mammary epithelial cells (HuBrEC, Lonza, Walkersville, Md.), primary human prostate epithelial cells (HuPrEC, Lonza), and primary mouse spleen lymphocytes (isolated in this laboratory), and primary mouse bone marrow stromal cells (isolated in this laboratory). PCNA-I1 and PCNA-I2 were either provided by the University of Cincinnati Drug Discovery Center (UC-DDC, Cincinnati, Ohio) or were purchased from Chembridge Co (San Diego, Calif.), ChemDiv (San Diego, Calif.), and/or Sigma-Aldrich (St Louis, Mo.).
Growth inhibitory effects of the compounds were assessed by MTT staining as described previously by Dong et al. in In Vitro Model for Intrinsic Drug Resistance: Effects of Protein Kinase C Activators on the Chemosensitivity of Cultured Human Colon Cancer Cells; Mol. Pharmacol. 1991; 39: 563-9. Briefly, cells were cultured and treated in their respective media. Cells were plated into 96-well plates at 1000 to 5000 cells/well. After an overnight incubation, the cells were treated for four days with various concentrations (up to 10 μM) of PCNA-I1 or PCNA-I2. The live cells were stained with MTT and cells in exponential growth phase were harvested by a one to three minute treatment with a 0.25% trypsin-0.02% EDTA solution. Flasks were tapped to detach the cells, RPMI 1640-10% FBS was added, and the cell suspensions were gently agitated to produce single-cell suspensions. The cell suspensions were washed and resuspended in medium with supplements specified for different cells. Only suspensions of single cells with a viability exceeding 95% (ascertained by trypan blue exclusion) were used.
(§4) IC50 values were derived from growth inhibition curves. Data for tumor cells are a mean of five to seven experiments. Data for primary cells are a mean of three experiments. […] Inhibition of cell growth was calculated using the formula: growth inhibition (%)=(1−A570 of treated/A570 of control)×100. IC50 (the concentration that inhibited cell growth by 50%) values were also determined. For evaluation of lymphocyte growth in suspension, an Alamar blue assay was performed, wherein freshly prepared mouse spleen lymphocytes were stimulated for 72 H with 2 ug/mL concanavalin A (Sigma Chemicals, St. Louis, […].). During the last 24 H, 20 μl/well of Alamar blue (Invitrogen, Carlsbad, Calif.) was added. The fluorescence intensity was measured at 530/580 (excitation/emission) in the FLUOstar Omega microplate reader (BMG LABTECH, Cary, N.C.).
Growth inhibitory effects of PCNA-I3, PCNA-I4, PCNA-I6, PCNA-I7, PCNA-I8, PCNA-I9 and PCNA-I10 were assessed in human prostate cancer cell lines. Specifically, growth inhibitory effects of PCNA-I3, PCNA-I4, PCNA-I6, PCNA-I7, PCNA-I8, PCNA-I9 and PCNA-I10 were assessed using MTT staining in LNCaP and PC-3 cells. […]

[3] = test system: CT26R100 murine colon cancer cell line; assay: Growth inhibition by MTT staining, CT26R100; assay type: cell-based, Mouse
Tumor Cells = assay: Growth inhibition, mean over tumor cell lines; assay type: cell-based; details: mean over all tumor cell lines; read-out: IC50 Values, Tumor Cells, Mean ± SD
Procedure: as §1, §2

[4] = test system: primary bone marrow mesenchymal stem cells (MSC); assay: Growth inhibition, bone marrow mesenchymal stem cells; assay type: cell-based, Human
Procedure: as §1, §2

[5] = test system: primary human mammary epithelial cells; assay: Growth inhibition, mammary epithelial cells; assay type: cell-based; details: Epithelial cell, normal cells, read-out: IC50 Values, Breast Epithelial Cells
Procedure: as §1, §2

[6] = test system: Lung Endothelial Cells (immortal) (Mu-Lu-Endo); assay: Growth inhibition, mouse lung endothelial cells; assay type: cell-based; details: for IC50: Endothelial cell
Procedure: as §3
Growth inhibitory effects of the compounds were assessed by MTT staining as described previously by Dong et al. in In Vitro Model for Intrinsic Drug Resistance: Effects of Protein Kinase C Activators on the Chemosensitivity of Cultured Human Colon Cancer Cells; Mol. Pharmacol. 1991; 39: 563-9. […]
IC50 values were derived from growth inhibition curves. […] Inhibition of cell growth was calculated using the formula: growth inhibition (%)=(1−A570 of treated/A570 of control)×100. […] The fluorescence intensity was measured at 530/580 (excitation/emission) in the FLUOstar Omega microplate reader (BMG LABTECH, Cary, N.C.). […]

[7] = test system: primary mouse bone marrow stromal cells; assay: Growth inhibition, mouse bone marrow stromal cells; assay type: cell-based; details: normal cells, read-out: IC50 Values, Bone Marrow Stroma Cells
Procedure: as §1, §2

[8] = test system: primary mouse spleen lymphocytes; assay: Alamar blue assay of lymphocyte growth; assay type: cell-based; details: for IC50: Lymphocyte
Procedure: as §4
The effects of PCNA-I1 on growth of tumor cells versus primary cells was also investigated. Specifically, the effects of PCNA-1I on the growth of primary cells was investigated using primary culture of mouse lymphocytes. An Alamar blue assay was performed with PC-3 cells as a positive control. Freshly prepared mouse spleen lymphocytes were stimulated for 72 H with 2 μg/mL of concanavalin A. During the last 24 H, 20 μL/well of alamar blue was added. The fluorescence intensity was measured at 530/580 (excitation/emission).

PC-3 cells = assay: Cell growth after single 24 H pre-treatment (Alamar blue); assay type: cell-based, Human; details: 0.5 μM for 24 H, washed, Alamar blue up to 144 H; FIG. 1
Text: The necessity of a continuous presence of PCNA-I1 for cell growth was also investigated.

**Q.** What does the source list for Cc1ccsc1C(=O)N/N=C/c1ccc2ccccc2c1O [PCNA-I1]?
**A.** IC50 [1]: 300 nM; IC50 [2]: 140 nM; IC50 ([3]; Mouse tumor cells, cell line not given, read-out: IC50 Values, cell line cell blank (second row below UV2237)): 80 nM; Sensitivity of multidrug resistant CT26R100 and CT26-R500 cells relative to parental CT26 cells ([3]; cells overexpress P-glycoprotein, MDR phenotype): even more sensitive to PCNA-I1 than the parental CT26 cells; also recorded: as susceptible as the parental CT-26 cells; IC50 (Tumor Cells): 190 ± 90 nM; IC50 ([4]; Homo sapiens, FIG. 2(C), read-out: IC50, MSC): 989 nM; IC50 ([4]; Human, Bone Marrow, normal cells, read-out: IC50 Values, Mesenchymal Stem Cells): 990 nM; IC50 [5]: 1670 nM; IC50 ([6]; Mouse, Blood Vessel, normal cells, read-out: IC50 Values, Lung Endothelial Cells (immortal)): 1160 nM; Growth stimulation, Mu-Lu-Endo ([6]; FIG. 2(C)): Moderate growth stimulation; IC50 ([6]; Mus musculus, FIG. 2(C), read-out: IC50, Mu-Lu-Endo): 1160 nM; IC50 [7]: 1900 nM; IC50 ([8]; FIG. 2(B), Alamar blue assay, mouse spleen lymphocytes, read-out: IC50, lymphocytes): 1500 nM; IC50 ([8]; Mouse, normal cells, Alamar blue, read-out: IC50 Values, Spleen Lymphocytes): 1500 nM; Lymphocyte growth at low concentrations ([8]; with or without concanavalin A): promoted lymphocyte growth at concentrations below the cytotoxic or cytostatic doses; Duration of growth inhibition after single one-day pre-treatment (PC-3 cells): sufficient to inhibit cell growth for up to seven days
